According to US8309718B2, “4-pyrazolyl-N-arylpyrimidin-2-amines and 4-pyrazolyl-N-heteroarylpyrimidin-2-amines as janus kinase inhibitors” (Incyte Corporation, priority 2007, dated 2012):

Target: T1, human JAK2 (Homo sapiens, UniProt O60674)
T1 construct: JAK2 (a.a. 828-1132); His tag (N); made in house; host or cells: insect cells (baculovirus)
Assay: In vitro JAK kinase assay (HTRF, phosphorylation of biotinylated peptide)
Assay type: biochemical
Settings: catalytic domain a.a. 828-1132, 30 μM ATP, 500 nM peptide, room temperature 1 hr; read-out: JAK-2 IC50
Method in brief: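 IC50 from HTRF detection (Eu-Py20 antibody, SA-APC) of biotinylated-peptide phosphorylation (500 nM), run 1 h at RT. Enzyme: N-His human JAK2 kinase domain a.a. 828-1132 from insect cells; ATP 30 μM; buffer 50 mM Tris pH 7.8 with NaCl, DTT, BSA.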

T1 sequence (O60674 828-1132): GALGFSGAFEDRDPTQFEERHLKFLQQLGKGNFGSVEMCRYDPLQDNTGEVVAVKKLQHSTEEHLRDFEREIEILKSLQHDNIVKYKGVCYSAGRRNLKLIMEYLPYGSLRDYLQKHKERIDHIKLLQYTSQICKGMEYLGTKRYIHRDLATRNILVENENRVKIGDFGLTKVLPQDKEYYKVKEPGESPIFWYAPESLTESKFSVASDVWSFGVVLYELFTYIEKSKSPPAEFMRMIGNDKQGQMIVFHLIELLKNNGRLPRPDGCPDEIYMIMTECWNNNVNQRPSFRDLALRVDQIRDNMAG

IC50, < 100 nM:
N#CCC(C1CCCC1)n1cc(-c2ccnc(Nc3ccc(C(=O)N4CCC(Oc5ccccn5)C4)cc3)n2)cn1 (mixture of isomers) [Example 233, 3-cyclopentyl-3-(4-(2-(4-(3-(pyridin-2-yloxy)pyrrolidine-1-carbonyl)phenylamino)pyrimidin-4-yl)-1H-pyrazol-1-yl)propanenitrile]
N#CCC1(n2cc(-c3ccnc(Nc4ccc(-n5cccn5)cc4)n3)cn2)CCN(C(=O)c2ccno2)CC1 (racemic) [Example 12, 2-(4-(4-(2-(4-(1H-pyrazol-1-yl)phenylamino)pyrimidin-4-yl)-1H-pyrazol-1-yl)-1-(isoxazole-5-carbonyl)piperidin-4-yl)acetonitrile]
N#CCC(C1CC1)n1cc(-c2ccnc(Nc3ccc(C(=O)N4CC[C@H](F)C4)cc3)n2)cn1 (mixture of isomers) [Example 271, 3-cyclopropyl-3-(4-(2-(4-((S)-3-fluoropyrrolidine-1-carbonyl)phenylamino)pyrimidin-4-yl)-1H-pyrazol-1-yl)propanenitrile]
CC(NC(=O)c1cccc(Nc2nccc(-c3cnn(C(CC#N)C4CCCC4)c3)n2)c1)c1ccccn1 (mixture of isomers) [Example 156, 3-(4-(1-(2-cyano-1-cyclopentylethyl)-1H-pyrazol-4-yl)pyrimidin-2-ylamino)-N-(1-(pyridin-2-yl)ethyl)benzamide]
CN(C)C(=O)c1ccc(Nc2nccc(-c3cnn(C(CC#N)CC4CCN(S(=O)(=O)c5ccn(C)n5)CC4)c3)n2)cc1 (racemic) [Example 58, 4-(4-(1-(1-cyano-3-(1-(1-methyl-1H-pyrazol-3-ylsulfonyl)piperidin-4-yl)propan-2-yl)-1H-pyrazol-4-yl)pyrimidin-2-ylamino)-N,N-dimethylbenzamide]
COc1ccccc1CNC(=O)c1cccc(Nc2nccc(-c3cnn(C(CC#N)C4CCCC4)c3)n2)c1 (racemic) [Example 163, 3-(4-(1-(2-cyano-1-cyclopentylethyl)-1H-pyrazol-4-yl)pyrimidin-2-ylamino)-N-(2-methoxybenzyl)benzamide]
CN1CCN(CC(=O)Nc2cccc(Nc3nccc(-c4cnn(C(CC#N)C5CCCC5)c4)n3)c2)CC1 (racemic) [Example 236, N-(3-(4-(1-(2-cyano-1-cyclopentylethyl)-1H-pyrazol-4-yl)pyrimidin-2-ylamino)phenyl)-2-(4-methylpiperazin-1-yl)acetamide]
Cc1cnc(Nc2ccc(NS(C)(=O)=O)cc2)nc1-c1cnn(C(CC#N)C2CCCC2)c1 (racemic) [Example 89, N-(4-(4-(1-(2-cyano-1-cyclopentylethyl)-1H-pyrazol-4-yl)-5-methylpyrimidin-2-ylamino)phenyl)methanesulfonamide]
N#CCC(C1CC1)n1cc(-c2ccnc(Nc3ccc(N4CCCCC4=O)cc3)n2)cn1 (racemic) [Example 179, 3-cyclopropyl-3-(4-(2-(4-(2-oxopiperidin-1-yl)phenylamino)pyrimidin-4-yl)-1H-pyrazol-1-yl)propanenitrile]
CCS(=O)(=O)N1CCC(CC(CC#N)n2cc(-c3nc(Nc4ccc(C(=O)N(C)C)cc4)ncc3C)cn2)CC1 (racemic) [Example 52, 4-(4-(1-(1-cyano-3-(1-(ethylsulfonyl)piperidin-4-yl)propan-2-yl)-1H-pyrazol-4-yl)-5-methylpyrimidin-2-ylamino)-N,N-dimethylbenzamide]
CC(=O)N1CCN(C(=O)c2ccc(Nc3nccc(-c4cnn(C5(CC#N)CC(C#N)C5)c4)n3)cc2)CC1 (single isomer, unassigned) [Example 298, 3-(4-(2-(4-(4-acetylpiperazine-1-carbonyl)phenylamino)pyrimidin-4-yl)-1H-pyrazol-1-yl)-3-(cyanomethyl)cyclobutanecarbonitrile]
N#CCC(C1CCN(C(=O)c2ccccc2)CC1)n1cc(-c2ccnc(Nc3ccc(N4CCOCC4)cc3)n2)cn1 (racemic) [Example 27, 3-(1-benzoylpiperidin-4-yl)-3-(4-(2-(4-morpholinophenylamino)pyrimidin-4-yl)-1H-pyrazol-1-yl)propanenitrile]
N#CCC(C1CCCC1)n1cc(-c2ccnc(Nc3ccc(C(=O)N4CCOCC4)cc3)n2)cn1 (racemic) [Example 213, 3-cyclopentyl-3-(4-(2-(4-(morpholine-4-carbonyl)phenylamino)pyrimidin-4-yl)-1H-pyrazol-1-yl)propanenitrile]
CCS(=O)(=O)N1CC(CC#N)(n2cc(-c3ccnc(Nc4ccc(C(=O)N5CC[C@H](OC)C5)cc4)n3)cn2)C1 [Example 277, (S)-2-(1-(ethylsulfonyl)-3-(4-(2-(4-(3-methoxypyrrolidine-1-carbonyl)phenylamino)pyrimidin-4-yl)-1H-pyrazol-1-yl)azetidin-3-yl)acetonitrile]
CS(=O)(=O)Nc1cccc(Nc2nccc(-c3cnn(C(CC#N)C4CCCC4)c3)n2)c1 (racemic) [Example 115, N-(3-(4-(1-(2-cyano-1-cyclopentylethyl)-1H-pyrazol-4-yl)pyrimidin-2-ylamino)phenyl)methanesulfonamide]
COc1cnc(Nc2cccc(C(=O)N3CCC3)c2)nc1-c1cnn(C(CC#N)C2CC2)c1 (racemic) [Example 334, 3-[4-(2-{[3-(azetidin-1-ylcarbonyl)phenyl]amino}-5-methoxypyrimidin-4-yl)-1H-pyrazol-1-yl]-3-cyclopropylpropanenitrile]
CCS(=O)(=O)N1CCC(CC(CC#N)n2cc(-c3nc(Nc4ccc(N5CCOCC5)cc4)ncc3C)cn2)CC1 (racemic) [Example 48, 4-(1-(ethylsulfonyl)piperidin-4-yl)-3-(4-(5-methyl-2-(4-morpholinophenylamino)pyrimidin-4-yl)-1H-pyrazol-1-yl)butanenitrile]
CC(=O)Nc1ccc(Nc2nccc(-c3cnn(C(CC#N)CC4CCN(S(=O)(=O)c5ccn(C)n5)CC4)c3)n2)cc1 (racemic) [Example 45, N-(4-(4-(1-(1-cyano-3-(1-(1-methyl-1H-pyrazol-3-ylsulfonyl)piperidin-4-yl)propan-2-yl)-1H-pyrazol-4-yl)pyrimidin-2-ylamino)phenyl)acetamide]
N#CCC(C1CC1)n1cc(-c2ccnc(Nc3ccc(C(=O)N4CC[C@@H](O)C4)cc3)n2)cn1 (mixture of isomers) [Example 266, 3-cyclopropyl-3-(4-(2-(4-((R)-3-hydroxypyrrolidine-1-carbonyl)phenylamino)pyrimidin-4-yl)-1H-pyrazol-1-yl)propanenitrile]
CO[C@H]1CCN(C(=O)c2ccc(Nc3nccc(-c4cnn(C5(CC#N)CC(C#N)C5)c4)n3)cc2)C1 (single isomer, unassigned) [Example 296]
CNC(=O)c1cccc(Nc2nccc(-c3cnn(C(CC#N)C4CCCC4)c3)n2)c1 (racemic) [Example 109, 3-(4-(1-(2-cyano-1-cyclopentylethyl)-1H-pyrazol-4-yl)pyrimidin-2-ylamino)-N-methylbenzamide]
Cc1cnc(Nc2ccc(C(=O)N(C)C)cc2)nc1-c1cnn(C(CC#N)CC2CCN(C(=O)c3ccc(F)cc3F)CC2)c1 (racemic) [Example 68, 4-(4-(1-(1-cyano-3-(1-(2,4-difluorobenzoyl)piperidin-4-yl)propan-2-yl)-1H-pyrazol-4-yl)-5-methylpyrimidin-2-ylamino)-N,N-dimethylbenzamide]
CO[C@H]1CCN(C(=O)c2ccc(Nc3nccc(-c4cnn(C(CC#N)C5CCOCC5)c4)n3)cc2)C1 (mixture of isomers) [Example 316, 3-(4-{2-[(4-{[(3S)-3-methoxypyrrolidin-1-yl]carbonyl}phenyl)amino]pyrimidin-4-yl}-1H-pyrazol-1-yl)-3-(tetrahydro-2H-pyran-4-yl)propanenitrile]
N#CCC(C1CCCC1)n1cc(-c2ccnc(Nc3cccc(NC(=O)CN4CCCC4)c3)n2)cn1 (racemic) [Example 118, N-(3-(4-(1-(2-cyano-1-cyclopentylethyl)-1H-pyrazol-4-yl)pyrimidin-2-ylamino)phenyl)-2-(pyrrolidin-1-yl)acetamide]
CC(=O)N[C@@H]1CCN(C(=O)c2cccc(Nc3nccc(-c4cnn(C(CC#N)C5CCCC5)c4)n3)c2)C1 (mixture of isomers) [Example 158, N-((3R)-1-(3-(4-(1-(2-cyano-1-cyclopentylethyl)-1H-pyrazol-4-yl)pyrimidin-2-ylamino)benzoyl)pyrrolidin-3-yl)acetamide]
N#CCC(C1CCNCC1)n1cc(-c2ccnc(Nc3ccc(N4CCOCC4)cc3)n2)cn1 (racemic) [Example 22, 3-(4-(2-(4-morpholinophenylamino)pyrimidin-4-yl)-1H-pyrazol-1-yl)-3-(piperidin-4-yl)propanenitrile]
CC(=O)Nc1cccc(Nc2nccc(-c3cnn(C(CC#N)C4CCCC4)c3)n2)c1 (racemic) [Example 117, N-(3-(4-(1-(2-cyano-1-cyclopentylethyl)-1H-pyrazol-4-yl)pyrimidin-2-ylamino)phenyl)acetamide]
N#CCC1(n2cc(-c3ccnc(Nc4ccc(C(=O)N5CCOCC5)cc4)n3)cn2)CC(C#N)C1 (single isomer, unassigned) [Example 287, 3-(cyanomethyl)-3-(4-(2-(4-(morpholine-4-carbonyl)phenylamino)pyrimidin-4-yl)-1H-pyrazol-1-yl)cyclobutanecarbonitrile]
